Test results: paper PMC3587566, “The Ultra-Potent and Selective TLR8 Agonist VTX-294 Activates Human Newborn and Adult Leukocytes” (PLoS ONE, 2013)
Read-outs that look alike come from different tables or passages of the source.

Assays:
Type in all cases: cell-based
[1] = test system: human adult peripheral blood; experiment: Adult whole blood assay, TNF / IL-1β ELISA; details: mean, n = 4-9; for EC50: Homo sapiens
human newborn cord blood [2] = experiment: Newborn whole blood assay, TNF / IL-1β ELISA; details: mean, n = 4-9
human newborn cord blood [3] = experiment: Newborn whole blood assay, TNF / IL-1β ELISA; details: for Newborn WBA IL-1β / Newborn WBA TNF: baseline subtracted
Description: (§1) Peripheral blood was collected from healthy adult volunteers, while human newborn cord blood was collected immediately after Cesarean section delivery of the placenta. Births to HIV-positive mothers were excluded. Human experimentation guidelines of the U.S. Department of Health and Human Services, The Brigham & Women’s Hospital, and Boston Children’s Hospital were observed, following protocols approved by the local institutional review boards. Human blood was anti-coagulated with 15–20 units/ml pyrogen-free sodium heparin (American Pharmaceutical Partners, Inc., Schaumberg, IL). All blood products were kept at room temperature and processed within 4 hrs of collection.
(§2) For assessment of TLR agonist activity in whole blood, we used an adaptation of the method of Kollmann et al., [33]. […] Suspensions containing 200 µl/well were gently mixed by pipetting and incubated for 2–24 h at 37°C in a humidified incubator at 5% CO2. After culture, plates were centrifuged at 500×g and 110–150 µl of supernatant was carefully removed by pipetting without disturbing the cell pellet. Supernatants derived from human leukocyte stimulations were assayed by ELISA for TNF (BD Biosciences, San Jose, CA, USA) and IL-1β (eBiosciences, San Diego, CA). Additionally, WB supernatants were analysed by Multi-Analyte Profiling (MAP). Briefly, supernatant samples were frozen at −80°C and submitted to Myriad RBM (Austin, TX, USA) for screening with a modified Human InflammationMAP® v. 1.6 antigen panel, which analyzed the samples for the presence of 98 analytes associated with inflammation. The minimum threshold for each analyte was set at the minimum detectable dose for that particular assay (defined as three standard deviations above the mean background).
(§3) Compound concentrations are shown in µM, except for MPLA, which are shown in ng/ml. Data are shown as mean ± SEM of n = 5–8.

human neonatal MoDCs = experiment: Neonatal monocyte-derived dendritic cell (MoDC) stimulation, TNF ELISA; details: 24 h
Description: Heparinized human newborn cord blood or adult peripheral blood was layered onto Ficoll-Hypaque gradients (Ficoll-Paque PREMIUM, GE Healthcare, Waukesha, WI) to collect CBMC or peripheral blood mononuclear cell layers (PBMC), respectively. Monocytes were isolated from mononuclear cell fractions by positive selection by magnetic microbeads according to the manufacturer’s instructions (Miltenyi Biotec, Auburn, CA) using CD14 or CD33 as a pan-marker for monocytes. Monocyte preparations were >95% pure as assessed by flow cytometry for CD14 as previously described. […] After 5–6 days, immature MoDCs (HLA-DR^+, CD14^−, DC-SIGN^+ as measured by flow cytometry) of >90% purity were harvested by gently pipetting only the loosely adherent fraction and re-plated (10^5 cells/well) in 96-well U-bottom plates in the presence or absence of TLR agonists.
Following TLR agonist stimulation, MoDCs were resuspended in staining buffer (1×PBS, 0.5% human serum albumin (HSA)) and stained for 30 min at 4°C in the dark (1.5×10^5/per staining) with fluorophore-labeled antibodies (FITC/HLA-DR and PE/CD86) (BD Biosciences). Cells were then centrifuged, washed, fixed (1% paraformaldehyde (PFA)) and filtered prior to flow cytometry analysis using a MoFlo Legacy cytometer (DakoCytomation, Fort Collins, CO) and analyzed using FlowJo software (Tree Star). […]

[4] = test system: human adult peripheral blood; experiment: Adult whole blood assay, TNF / IL-1β ELISA; details: baseline subtracted
Description: as §1, §2, §3

CCOCc1nc2c(N)nc3ccccc3c2n1CC(C)(C)O [R848]
EC50 ([1]; read-out: Adult WBA IL-1β EC50): 1620 nM | EC50 ([1]; read-out: Adult WBA TNF EC50): 1040 nM | EC50 (human newborn cord blood [2]; Homo sapiens, read-out: Newborn WBA TNF EC50): 1500 nM | EC50 (human newborn cord blood [3]; Homo sapiens, mean, n = 4-9, read-out: Newborn WBA IL-1β EC50): 6650 nM | Newborn WBA IL-1β (human newborn cord blood [3]; agonist 0.1 μM): 0 pg/mL | Newborn WBA TNF (human newborn cord blood [3]; agonist 0.1 μM): 0 pg/mL | Newborn WBA IL-1β (human newborn cord blood [3]; agonist 0.3 μM): 9 pg/mL | Newborn WBA TNF (human newborn cord blood [3]; agonist 0.3 μM): 0 pg/mL | Newborn WBA IL-1β (human newborn cord blood [3]; agonist 1 μM): 285 pg/mL | Newborn WBA TNF (human newborn cord blood [3]; agonist 1 μM): 2164 pg/mL | Newborn WBA IL-1β (human newborn cord blood [3]; agonist 10 μM): 7442 pg/mL | Newborn WBA TNF (human newborn cord blood [3]; agonist 10 μM): 33609 pg/mL | Newborn WBA IL-1β (human newborn cord blood [3]; agonist 100 μM): 10822 pg/mL | Newborn WBA TNF (human newborn cord blood [3]; agonist 100 μM): 20117 pg/mL | lowest concentration inducing MoDC TNF production (human neonatal MoDCs; tested 0.1, 0.3, 10 µM): 10 µM | Adult WBA IL-1β ([4]; agonist 0.1 μM): 2 pg/mL | Adult WBA TNF ([4]; agonist 0.1 μM): 132 pg/mL | Adult WBA IL-1β ([4]; agonist 0.3 μM): 27 pg/mL | Adult WBA TNF ([4]; agonist 0.3 μM): 750 pg/mL | Adult WBA IL-1β ([4]; agonist 1 μM): 779 pg/mL | Adult WBA TNF ([4]; agonist 1 μM): 6661 pg/mL | Adult WBA IL-1β ([4]; agonist 10 μM): 4762 pg/mL | Adult WBA TNF ([4]; agonist 10 μM): 13913 pg/mL | Adult WBA IL-1β ([4]; agonist 100 μM): 4694 pg/mL | Adult WBA TNF ([4]; agonist 100 μM): 9982 pg/mL

monophosphoryl lipid A [MPLA]
Adult WBA IL-1β EC50 [1]: 0.00159 µg/mL | Adult WBA TNF EC50 [1]: 0.01259 µg/mL | Newborn WBA IL-1β EC50 (human newborn cord blood [2]): 0.01148 µg/mL | Newborn WBA TNF EC50 (human newborn cord blood [2]): 0.01457 µg/mL | Newborn WBA IL-1β (human newborn cord blood [3]; agonist 0.1 ng/ml): 0 pg/mL | Newborn WBA TNF (human newborn cord blood [3]; agonist 0.1 ng/ml): 0 pg/mL | Newborn WBA IL-1β (human newborn cord blood [3]; agonist 0.3 ng/ml): 0 pg/mL | Newborn WBA TNF (human newborn cord blood [3]; agonist 0.3 ng/ml): 11 pg/mL | Newborn WBA IL-1β (human newborn cord blood [3]; agonist 1 ng/ml): 24 pg/mL | Newborn WBA TNF (human newborn cord blood [3]; agonist 1 ng/ml): 29 pg/mL | Newborn WBA IL-1β (human newborn cord blood [3]; agonist 10 ng/ml): 682 pg/mL | Newborn WBA TNF (human newborn cord blood [3]; agonist 10 ng/ml): 642 pg/mL | Newborn WBA IL-1β (human newborn cord blood [3]; agonist 100 ng/ml): 1628 pg/mL | Newborn WBA TNF (human newborn cord blood [3]; agonist 100 ng/ml): 3665 pg/mL | lowest concentration inducing MoDC TNF production (p<0.05 vs unstimulated) (human neonatal MoDCs; tested 1, 10, 100 ng/ml): 10 ng/mL | Adult WBA IL-1β ([4]; agonist 0.1 ng/ml): 5 pg/mL | Adult WBA TNF ([4]; agonist 0.1 ng/ml): 128 pg/mL | Adult WBA IL-1β ([4]; agonist 0.3 ng/ml): 27 pg/mL | Adult WBA TNF ([4]; agonist 0.3 ng/ml): 33 pg/mL | Adult WBA IL-1β ([4]; agonist 1 ng/ml): 95 pg/mL | Adult WBA TNF ([4]; agonist 1 ng/ml): 215 pg/mL | Adult WBA IL-1β ([4]; agonist 10 ng/ml): 763 pg/mL | Adult WBA TNF ([4]; agonist 10 ng/ml): 3353 pg/mL | Adult WBA IL-1β ([4]; agonist 100 ng/ml): 3153 pg/mL | Adult WBA TNF ([4]; agonist 100 ng/ml): 9158 pg/mL
